This data set is described as follows: gradient 5% acetonitrile 3 min, to 50% in 2 min, to 85% in 15 min, held 3 min, 100 µL/min. As to conditions: column: Zorbax Extend-C18 2.1 x 50 mm; eluents: water / acetonitrile, 0.1% formic acid. Summed up: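 A Zorbax Extend-C18 column (2.1 × 50 mm, 1.8 μm) run at 100 μL/min with water and acetonitrile, both containing 0.1% formic acid, separated mixtures of ~100 pure standards. The HPLC was coupled to a quadrupole time-of-flight mass spectrometer operated in positive and negative ionization mode, with dead and dwell volumes of 40 μL and 900 μL. Each retention time was taken from a computationally picked adduct peak that was then manually inspected.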
In turn, `COc1ccccc1-c1csc(NC(=O)c2sc(COc3ccc(Cl)c(C)c3)nc2C)n1` displayed an RP-LC retention time of 1360 s.
To `Cc1nn(-c2ccc(-c3ccccc3)nn2)c(C)c1S(=O)(=O)N(C)Cc1ccccc1` belongs 1190 s.
To `O=C(c1ccccc1Cl)N1CCC(n2cnnc2C2CC2)CC1` belongs 620 s; to `Cc1nc(C2(C)CCN(S(=O)(=O)c3ccccc3C(F)(F)F)CC2)no1`, 963 s; to `COc1ccc(C(=O)N2CCC3(CC2)NC(=O)c2cccc(Cl)c2N3)cc1`, 738 s.
To `O=C(COc1ccc(-c2cnc3ccccc3n2)cc1)NCCN1CCCC1` belongs 623 s.
As for `COc1ccc(Cl)cc1NC(=O)c1c(N)c(C(=O)c2cccs2)n2ccccc12`, the RP-LC retention time stood at 1140 s.
`O=C(Nc1ccc(OCc2nnc(-c3ccccc3)o2)cc1)C1CCC1` came in with an RP-LC retention time of 878 s.
For `COC[C@@H]1CN(Cc2c(C)noc2C)C[C@H]1c1ccccn1` the value was 580 s.
For `CCc1c(C2CCN(C(=O)c3cc(C)on3)CC2)noc1N` the value was 669 s; for `CCOC(=O)C1=C(CN2CCCCC2)NC(=O)NC1c1ccc(OC(C)C)cc1` (stereo not drawn), 646 s.
To `O=C(N1CCN(S(=O)(=O)Cc2ccccc2)CC1)N1C[C@H]2C[C@H](C1)[C@H]1CCCC(=O)N1C2` belongs 709 s.
For the molecule `CCn1ccc(C(=O)N2CCN(c3cc(-c4ccc(Cl)cc4)[nH]n3)CC2)n1`, the RP-LC retention time is 827 s.
For `O=C([C@@H]1C[C@H](F)CN1S(=O)(=O)c1ccc2c(c1)OCCO2)N1CCCCC1` the value was 759 s; for `COc1ccccc1N1CCN(c2cc(SCC(=O)Nc3cc(C)ccc3C)ncn2)CC1`, 1070 s; for `O=C(CSc1nc(CC(=O)N2CCN(c3ccccn3)CC2)cs1)c1cccs1`, 567 s.
The molecule `CCN(CC)CCc1nc(-c2ccccc2)no1` displayed an RP-LC retention time of 674 s.
To `Cc1cc2nc(Nc3ncc4c(n3)CC(c3ccccc3)CC4=O)nc(C)c2cc1C` (stereo not drawn) belongs 793 s; to `CCCOc1ccc(-c2cn3ccccc3n2)cc1[N+](=O)[O-]`, 681 s; to `COc1ccccc1N1CCN(S(=O)(=O)c2ccc(F)cc2C)CC1`, 1010 s.
`Cc1ccc(-c2nnc(-c3nc(N4CCOCC4)c4ccccc4n3)o2)cc1` had an RP-LC retention time of 945 s.
To `CC(C)c1ccc(S(=O)(=O)N2CCC(n3c(-c4ccoc4)nc4cccnc43)C2)cc1` (stereo not drawn) belongs 1010 s; to `CCC(C)NC(=O)Nc1cc2c(cc1Oc1ccccc1)n(C)c(=O)n2C` (stereo not drawn), 853 s; to `COc1cc(Cl)c(C)cc1N1C=C(C#N)S(=O)(=O)c2ccc(F)cc21`, 972 s.
Turning to `Cc1ccc(Cn2c(CN3CC(C)OC(C)C3)nc3c2c(=O)n(C)c(=O)n3C)cc1` (stereo not drawn), the RP-LC retention time is 700 s.
Turning to `CCOc1ccc(-c2ccc3nnc(SCC(=O)Nc4nc(C)cs4)n3n2)cc1`, the RP-LC retention time was 752 s.
To `CCC(=O)N1CCC(C2CCN(S(=O)(=O)c3ccccc3)CC2)C1` (stereo not drawn) belongs 788 s; to `Cn1c(=O)n(C2CCCN(C(=O)Cc3ccccc3)C2)c2ncncc21` (stereo not drawn), 668 s.
In turn, `Cc1ccc2c(C(=O)N3CCN(CC(C)C)CC3)cc(NC(=O)C3CCC3)cc2n1` yielded an RP-LC retention time of 562 s.
To `COc1ccc(C(=O)n2c(SC)nc3ccccc32)cc1OC` belongs 827 s; to `CC(C)N1C(=O)c2cccnc2Sc2cc(NC(=O)c3c(F)cccc3Cl)ccc21`, 973 s.
For `Cc1ccc(C)c(NC(=O)N2CCN(c3cnn4c(C)nnc4c3)CC2)c1` the value was 629 s; for `Cc1ccccc1CNC(=O)C1c2ccccc2CC(=O)N1C` (stereo not drawn), 755 s; for `CCN1CCN(CCNC(=O)C2CCCN(c3nc4cccnc4s3)C2)CC1` (stereo not drawn), 562 s.
To `Cc1ccc2c(C)nc(NC3=NCN(CC4CCCO4)CN3)nc2c1` (stereo not drawn) belongs 660 s.
`Cc1ccc(CCNC(=O)C2CCCN(c3nnc(C)c4c(C)n(-c5ccc(C)cc5)nc34)C2)cc1` (stereo not drawn) returned an RP-LC retention time of 815 s.
In turn, `CCOc1nc2ccccc2nc1N1CCCC(C(=O)NCc2cccc(C)c2)C1` (stereo not drawn) came in with an RP-LC retention time of 1170 s.
On to `COc1cccc(NC(=O)c2cc(C(C)(C)C)n3nccc3n2)c1`, for which the RP-LC retention time was 1250 s.
`Cc1noc(-c2cc(=O)n(CC(=O)Nc3ccccc3)c3ccccc23)n1` returned an RP-LC retention time of 840 s.
As for `O=C(CN1CCN(c2ccc3c(c2)OCCO3)C1=O)NCc1nc(-c2ccccc2)no1`, the RP-LC retention time amounted to 745 s.
For `COC(=O)Cn1c(=O)c2c(nc3n2CCCN3c2ccc(Cl)cc2)n(C)c1=O` the value was 868 s; for `Cc1ccc(-c2ccc(-n3nc(C)c(S(=O)(=O)Nc4ccc(F)cc4)c3C)nn2)cc1`, 1070 s.
To `CCCN1C(=O)c2cc(C(=O)NCc3ccc(N(C)C)cc3)nn2CC1(C)C(=O)NC1CCCC1` (stereo not drawn) belongs 655 s.
On to `O=C(CCC(=O)N1CC2CCCN2c2ccccc21)NCc1ccccn1` (stereo not drawn), for which the RP-LC retention time is 639 s.
For `COC(=O)N1CCN(Cc2cccc(NC(=O)Nc3ccc(C)nc3)c2F)CC1` the value was 577 s; for `CCCn1c(=O)c2cc(C(=O)Nc3ccccc3)nn2c2ccccc21`, 1030 s.
To `COCCCNC(=O)C1c2ccccc2C(=O)N1Cc1ccccc1F` (stereo not drawn) belongs 708 s; to `Cc1ccc(C)c(N2C(=O)CN(S(C)(=O)=O)CC2(C)C(=O)NCc2ccccc2)c1` (stereo not drawn), 809 s.
For `COc1cccc(CC(=O)NCC(=O)Nc2nc3ccccc3n2C)c1` the value was 645 s; for `O=C(NC1CCCCC1)N1CCCCC1c1nncn1CC1CC1` (stereo not drawn), 704 s; for `CCOc1ccccc1-c1noc(-c2nnn(Cc3nc(-c4cccc(C)c4)oc3C)c2C)n1`, 1260 s.
For the molecule `CCCCS(=O)(=O)c1cc2c(cc1NC(=O)Cc1ccc(Cl)cc1)n(C)c(=O)n2C`, the RP-LC retention time amounted to 919 s.
To `Cc1cccc(CNC(=O)c2ccc3c(c2)Sc2ncccc2C(=O)N3C)c1` belongs 796 s.
For `CN1c2cc(C(=O)NCc3cc(F)cc(F)c3)ccc2C(=O)N2CCCCC21` (stereo not drawn) the value was 844 s; for `Cc1cccc(-n2c(=O)c3c(cc(C)n3C)n(CC(=O)N(C)c3ccccc3)c2=O)c1`, 864 s.
To `O=C(c1ccc(OC(F)(F)F)cc1)N1C[C@@H]2C[C@H]1C[C@@H]2NS(=O)(=O)c1ccccc1` belongs 884 s.
`COc1ccc2c(c1)C1(CCN(S(=O)(=O)c3ccccc3)C1)C(=O)N2C` (stereo not drawn): the RP-LC retention time was 882 s.
For `CCCOc1ccnc2c1c(=O)n(CC(=O)Nc1cc(C)on1)c(=O)n2C` the value was 675 s.

These data come from the METLIN SMRT retention time set (Domingo-Almenara et al. 2019).
